“Also recorded” adds a separate entry of the source. No end group written: not given here.
What was measured:
cells [1] = experiment: Relative cell-binding activity of synthetic peptides (relative to the SEQ ID NO:1 peptide / P-15, or to collagen); type: cell-based; conditions: for Relative Cell-Binding Activity: relative to the inventive peptide illustrated in Examples 1 and 2 (SEQ ID NO:1)
Protocol: Several more synthetic peptides were prepared and tested for cell binding activity (relative to the SEQ ID NO:1 peptide) all of which have the β-bend feature and which have excellent cell binding activity.
The relative efficiencies of some synthetic peptides of this invention for cell-binding activity (relative to the inventive peptide illustrated in Examples 1 and 2) are set out in Table 4.

[2] = tested on: fibroblast cells from 19-week fetal human dermis; experiment: Binding of fibroblast cells to collagen- or peptide-coated glass coverslips and dishes (Example 1); type: cell-based; conditions: for Concentration of Cells (Relative Binding of Cells After 15 Minutes): coverslips coated with 50 μl of 1 mg/ml solution, approximately 100,000 fibroblast cells
Protocol: All media and supplies for tissue culture were obtained from University of California San Francisco Tissue Culture Facility. Cycloheximide was purchased from Sigma Biochemicals, St. Louis, Mo. Rat tail tendon collagen was purified to homogeneity and characterized in our laboratory using published methods. Tissue culture dishes (35 mm diameter, Falcon Plastics) were coated with collagen dissolved in 0.01 N acetic acid to a concentration of 10 μg/ml. The dishes were allowed to air dry overnight under ultraviolet light to maintain sterility. Primary cultures of fibroblast cells from 19-week fetal human dermis were obtained. The cultures were maintained in Eagles minimum essential medium with Earle's salts supplemented with 10% fetal bovine serum. All cells used were in the second passage and were obtained from confluent cultures. Prior to release and dispersion with trypsin, the cells were rinsed three times with phosphate buffered saline. The cell layers were exposed for two minutes to 0.05% trypsin, 0.02% NaEDTA in phosphate buffered saline, and rinsed with serum free medium. Glass coverslips (12-15) were washed in a cleaning solution overnight then rinsed with large amounts of distilled water. The coverslips were then sterilized by drying between sheets of filter paper in an oven at high temperature. The coverslips were then placed in small culture dishes under sterile conditions. A solution of collagen in acetic acid (1 mg/ml) was prepared. Fifty microliters of solution was placed on each of four coverslips, which were then dried in air overnight. A solution of the peptide in acetic acid (1 mg/ml) was prepared. Four coverslips were treated with 50 μl of the solution and then dried as described above. Approximately 100,000 fibroblast cells were pipetted onto four control coverslips and dishes, four collagen coated coverslips and dishes, and four peptide coated coverslips and dishes. After 15 minutes, excess medium containing floating cells was removed from each dish. Fresh medium was added and the dishes were examined under a microscope to determine the extent of binding of cells to the respective coverslips. If the number of bound cells appeared to be different, an assay for DNA in the cells attached to each coverslip was performed. The cells were counted using a hemocytometer.

[3] = tested on: peripheral blood CD4 and CD8 lymphocytes; experiment: Inhibition of T-cell binding to collagen-coated dishes (Example 7); type: cell-based; conditions: rat tail type I collagen-coated dishes, serum free medium
Protocol: Cultured T-cells were incubated in collagen-coated dishes in serum free medium, in the presence and absence of inventive peptides. […] Inhibition was examined at several concentrations and times. Maximal inhibition by the peptides occurred at 30 minutes at 37 ? C at a concentration of 35 μM. Thus, the molecular site on type I collagen involved in the interaction with T-cells appears to be the same as involved in fibroblast binding.

[4] = tested on: binding of cells to collagen; experiment: Inhibition of cell binding (attachment) to collagen substrates by peptides added to the medium (Example 2); type: cell-based, human; conditions: for % Inhibition of Cell Attachment / % of Maximal Cell Attachment: collagen substrates; for effect on the binding of cells to collagen (in words): equimolar concentrations of several peptides
Protocol: All media and supplies for tissue culture were obtained from University of California San Francisco Tissue Culture Facility. Cycloheximide was purchased from Sigma Biochemicals, St. Louis, Mo. Rat tail tendon collagen was purified to homogeneity and characterized in our laboratory using published methods. Tissue culture dishes (35 mm diameter, Falcon Plastics) were coated with collagen dissolved in 0.01 N acetic acid to a concentration of 10 μg/ml. The dishes were allowed to air dry overnight under ultraviolet light to maintain sterility.
Primary cultures of fibroblast cells from 19-week fetal human dermis were obtained. The cultures were maintained in Eagles minimum essential medium with Earle's salts supplemented with 10% fetal bovine serum. All cells used were in the second passage and were obtained from confluent cultures. Prior to release and dispersion with trypsin, the cells were rinsed three times with phosphate buffered saline. The cell layers were exposed for two minutes to 0.05% trypsin, 0.02% NaEDTA in phosphate buffered saline, and rinsed with serum free medium.
Collagen related, but non-inventive peptides, (Pro-Pro-Gly)10 and (Pro-Hyp-Gly)10 (wherein Hyp is hydroxy-proline), were obtained from Peninsula Laboratory, Belmont, Calif. Polyproline was purchased from Sigma Biochemicals, St. Louis, Mo. Dynorphin 1-13 and human preangiotensinogen 1-14 were purchased from Bachem, Torrance, Calif. Three different fibronectin related peptide sequences were also obtained from Bachem and were used without further analysis.
The inventive peptide (SEQ ID NO:1) was synthesized as described in Example 1 and the same procedures and conditions of Example 1 were used herein.
In this experiment to examine the effect of various additives on binding, the additives were added in the medium containing the cells before being transferred to the dishes for the binding assay. It was observed that cell binding to collagen proceeds rapidly in the beginning of the experiment but then slows down after approximately 30 minutes and approximately 70-80% of the cell binding in the absence of a peptide occurs during this time. The effect of the peptide inhibitor on the initial rate of the binding reaction between cells and collagen was examined. The effects of various conditions on cell binding to collagen after 30 minutes were usually compounded.
All peptides used had small inhibitory effects on cell binding, although none reached the level of inhibition observed with the inventive peptide. […] Under the conditions of these experiments, polyproline and (PPG)10 exist as single chains in polyproline conformation whereas (P-Hyp-G)10 is a triple helix. The behavior of dynorphin 1-13 and preangio-tensinogen 1-14, peptides similar in size to the inventive peptide, on cell binding was also examined.

fibroblast cells = experiment: Fibroblast growth and migration into agarose gel containing peptide (Example 3); type: cell-based; conditions: 100 μg peptide in agarose gel (2 mg/ml); 100,000-200,000 fibroblast cells; 72 hours after plating
Protocol: Referring to FIGS. 1 and 2, a prior art agarose gel was prepared with an agarose concentration of 2 mg/ml and between 100,000-200,000 fibroblast cells were placed on the gel surface. The agarose gel had been prepared with a suitable fibroblast cell growth medium and the cells placed on the agarose gel were treated with growth medium; however, the cells died within 48 hours, as is illustrated by the FIG. 1 photograph. […] The fibroblast population continued to grow rapidly until cells filled the lattice of the gel.
Different concentrations of the inventive peptides in hydrogels were studied. […] Different types of cells appear to prefer different inventive peptide concentrations in hydrogels, probably due to differences in receptor densities, but in general about 100 μg/ml will be effective.

dermal fibroblasts = experiment: Induction of metalloproteinases and osteodifferentiation in dermal fibroblasts; type: cell-based
Text: This activity is useful for resolving fibrosis. […] This is confirmed by the induction of the following genes: type I collagen, collagenase, alkaline phosphatase, osteonectin, transforming growth factor β (TGF-β), and osteogenin (bone morphogenic protein, […]). These studies confirm that the inventive peptides mimic the biological activity of collagen by binding to specific receptors and inducing biochemical processes characteristic of those induced by collagen itself.

cells [5] = experiment: Relative cell-binding activity of synthetic peptides (relative to the SEQ ID NO:1 peptide / P-15, or to collagen); type: cell-based

## Gly—Ile—Ala—Gly—Gln (GIAGQ; OTHER INFORMATION: synthetic peptide) [SEQ ID NO:6]
Cells [1]
  cell-binding activity (relative to the SEQ ID NO:1 peptide): 70%
  Relative Cell-Binding Activity: 70

## Collagen: Rat tail tendon collagen purified to homogeneity [reference compound]
[2]; 15 minutes
  Concentration of Cells (Relative Binding of Cells After 15 Minutes): 8.59

## QGIAGQ [SEQ ID NO:3]
Cells [1]
  cell binding activity compared with P-15 region / SEQ ID NO:1 peptide (in words): as active, or more active, than a peptide having the entire P-15 region
  Relative Cell-Binding Activity: 120
[3]
  inhibition of interactions between T-cells and collagen: markedly inhibited

## FGIAGF [SEQ ID NO:5]
Cells [1]
  cell binding activity compared with P-15 region / SEQ ID NO:1 peptide (in words): cell binding activity comparable to that of the peptides of SEQ ID NO: 1, 2, and 3
  Relative Cell-Binding Activity: 87

## GTPGPQGIAGQRGVV [SEQ ID NO:1]
[2]; 15 minutes
  increase in cell binding over collagen-coated dishes: 40%
  increase in cell binding over the control (no collagen or peptide) dishes: 60%
  Concentration of Cells (Relative Binding of Cells After 15 Minutes): 11.05
[2]; various other similar studies
  potency relative to collagen in binding cells to glass or to polystyrene: at least twice as potent as collagen
[4]; peptide 7.2 × 10^−6M
  % Inhibition of Cell Attachment: 85%
  % of Maximal Cell Attachment: 15%
[4]; peptide 36 × 10^−6M
  % Inhibition of Cell Attachment: 88%
  % of Maximal Cell Attachment: 12%
[4]
  effect on the binding of cells to collagen (in words): potent inhibitor of the binding of cells to collagen
Fibroblast cells
  fibroblast growth and migration into agarose gel: the cells not only grew, but actually migrated into the gel itself
[3]
  inhibition of interactions between T-cells and collagen: markedly inhibited
Dermal fibroblasts; dermal fibroblasts
  induction of metalloproteinases: induces metalloproteinases
Dermal fibroblasts; in composites with hydroxyapatite, non-osteoblastic (dermal) fibroblasts
  osteodifferentiation (induction of type I collagen, collagenase, alkaline phosphatase, osteonectin, TGF-β, BMP-7 genes): causes osteodifferentiation

## QGAIAQ [SEQ ID NO:7]
Cells [1]
  Relative Cell-Binding Activity: 70

## Gly-Ile-Ala-Gly (FGIAGF; OTHER INFORMATION: synthetic peptide) [SEQ ID NO:9]
Cells [5]
  cell binding enhancement with respect to collagen (in words): not significantly enhanced with respect to collagen

## human preangiotensinogen 1-14 (DRVYIHPFHLVIHN)
[4]; peptide 35 × 10^−6M
  % Inhibition of Cell Attachment: 12%
  % of Maximal Cell Attachment: 88%
[4]
  effect on the binding of cells to collagen (in words): did not affect the binding of cells to collagen to the extent shown by the inventive peptide

## Gln-Gly-Ile-Ala-Gly (QGIAG; OTHER INFORMATION: synthetic peptide) [SEQ ID NO:8]
Cells [1]
  cell-binding activity (relative to the SEQ ID NO:1 peptide): 42%
Cells [5]
  cell binding enhancement with respect to collagen (in words): slightly enhanced with respect to collagen, but not significantly enhanced; also recorded: not significantly enhanced with respect to collagen

## QGIAGQR [SEQ ID NO:4]
Cells [1]
  Relative Cell-Binding Activity: 60

## Polyproline
[4]; peptide 1.7 × 10^−6M
  % Inhibition of Cell Attachment: 10%
  % of Maximal Cell Attachment: 90%
[4]
  effect on the binding of cells to collagen (in words): did not significantly affect the binding of cells

## Dynorphin 1-13 (YGGFLRRIRPKLK)
[4]; peptide 35 × 10^−6M
  % Inhibition of Cell Attachment: 19%
  % of Maximal Cell Attachment: 81%
[4]
  effect on the binding of cells to collagen (in words): did not affect the binding of cells to collagen to the extent shown by the inventive peptide

## GPQGIAGQR [SEQ ID NO:2]
Cells [1]
  cell binding activity compared with P-15 region / SEQ ID NO:1 peptide (in words): equally as active as the entire P-15 region
  Relative Cell-Binding Activity: 100
[3]
  inhibition of interactions between T-cells and collagen: markedly inhibited
